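The compound was tested at five concentrations on cells cultured in 96-well plates, with a 48-hour exposure period. GI50 = concentration required for 50% inhibition of growth.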 Activity calls are given as the source filed them. Cut-off read from the data, not from the text of the source: active = GI50 up to about 1.1 µM and inactive = higher.
Tests used:
Test in all cases: NCI tumour cell line growth inhibition, 48 h
SK-OV-3 = test system: SK-OV-3
KM12 = test system: KM12
LXFL 529 = test system: LXFL 529
ACHN = test system: ACHN
NCI-H522 = test system: NCI-H522
HOP-92 = test system: HOP-92
SK-MEL-2 = test system: SK-MEL-2
HOP-62 = test system: HOP-62
SK-MEL-28 = test system: SK-MEL-28
HCT-15 = test system: HCT-15
COLO 205 = test system: COLO 205
M14 = test system: M14
U-251 = test system: U-251
OVCAR-8 = test system: OVCAR-8
LOX IMVI = test system: LOX IMVI
NCI-H460 = test system: NCI-H460
BT-549 = test system: BT-549
T47D = test system: T47D
PC-3 = test system: PC-3
MDA-MB-435 = test system: MDA-MB-435

Structure (SMILES)	GI50 (SK-OV-3)	GI50 (KM12)	GI50 (LXFL 529)	GI50 (ACHN)	GI50 (NCI-H522)	GI50 (HOP-92)	GI50 (SK-MEL-2)	GI50 (HOP-62)	GI50 (SK-MEL-28)	GI50 (HCT-15)	GI50 (COLO 205)	GI50 (M14)	GI50 (U-251)	GI50 (OVCAR-8)	GI50 (LOX IMVI)	GI50 (NCI-H460)	GI50 (BT-549)	GI50 (T47D)	GI50 (PC-3)	GI50 (MDA-MB-435)
C[C@@]1(Cc2ccccc2)C(=O)N2[C@@H](CO)C(c3ccccc3)O[C@]2(C)c2ccccc21 (some centres not stated)	> 100 µM (inactive)	> 100 µM (inactive)	> 100 µM (inactive)	> 100 µM (inactive)	81.1 µM (inactive)	> 100 µM (inactive)	> 100 µM (inactive)	> 100 µM (inactive)	> 100 µM (inactive)	> 100 µM	> 100 µM (inactive)	> 100 µM (inactive)	> 100 µM (inactive)	> 100 µM (inactive)	> 100 µM (inactive)					
CCOC(=O)C(=O)C=P(c1ccccc1)(c1ccccc1)c1ccccc1	> 100 µM (inactive)	> 100 µM (inactive)	> 100 µM (inactive)	> 100 µM (inactive)	> 100 µM (inactive)	> 100 µM (inactive)	> 100 µM (inactive)	> 100 µM (inactive)	> 100 µM (inactive)	> 100 µM	> 100 µM (inactive)	> 100 µM (inactive)	> 100 µM (inactive)	> 100 µM (inactive)	> 100 µM (inactive)	34.6 µM (inactive)				
C#CCN(Cc1ccc2nc(-c3ccccc3)c(Cl)nc2c1)c1cc(OC)c(OC)c(OC)c1	> 100 µM (inactive)	> 100 µM (inactive)	> 100 µM (inactive)	58.2 µM (inactive)	> 100 µM (inactive)	> 100 µM (inactive)	> 100 µM (inactive)	> 100 µM (inactive)	> 100 µM (inactive)	> 100 µM	57.1 µM (inactive)	> 100 µM (inactive)	27 µM (inactive)	> 100 µM (inactive)	14.8 µM (inactive)	46.1 µM (inactive)				
COC1C(OC(=O)/C=C/C=C/C=C/C=C\C(=O)O)CCC2(CO2)C1C1(C)OC1CC=C(C)C (configuration not stated)	> 89.7 µM (inactive)	> 100 µM (inactive)	> 100 µM (inactive)	> 100 µM (inactive)	> 100 µM (inactive)	> 100 µM (inactive)	> 100 µM (inactive)	> 100 µM (inactive)	> 100 µM (inactive)	> 100 µM	> 100 µM (inactive)	> 100 µM (inactive)	> 100 µM (inactive)	> 100 µM (inactive)	> 100 µM (inactive)	> 100 µM (inactive)	> 100 µM (inactive)	> 100 µM (inactive)	> 100 µM (inactive)	> 100 µM (inactive)
CC(C)COC(=O)c1ccc(/N=C\c2ccc(/C=N/c3ccc(C(=O)OCC(C)C)cc3)cc2)cc1	> 100 µM (inactive)	> 100 µM (inactive)	> 100 µM (inactive)	> 100 µM (inactive)	> 100 µM (inactive)	> 100 µM (inactive)	> 100 µM (inactive)	> 100 µM (inactive)	> 100 µM (inactive)	> 100 µM	> 100 µM (inactive)	> 100 µM (inactive)	> 100 µM (inactive)	> 100 µM (inactive)	> 100 µM (inactive)	> 100 µM (inactive)				
O=C(CCc1ccccc1)On1nnc2ccccc2c1=O	> 100 µM (inactive)	> 100 µM (inactive)	> 100 µM (inactive)	> 100 µM (inactive)	> 100 µM (inactive)	> 100 µM (inactive)	> 100 µM (inactive)	> 100 µM (inactive)		> 100 µM	> 100 µM (inactive)	> 100 µM (inactive)	> 100 µM (inactive)	> 100 µM (inactive)	> 100 µM (inactive)	> 100 µM (inactive)				
O=C(/C=C/c1ccccc1O)c1ccc([N+](=O)[O-])cc1	26.8 µM (inactive)	18.5 µM (inactive)	13.4 µM (inactive)	11.9 µM (inactive)	17.3 µM (inactive)	26.6 µM (inactive)	19.8 µM (inactive)	16.4 µM (inactive)	16.1 µM (inactive)	17 µM	12.5 µM (inactive)	20.9 µM (inactive)	14.6 µM (inactive)	15.5 µM (inactive)	15.8 µM (inactive)	22.7 µM (inactive)				
NCCNC(=O)c1cccc2cc3ccccc3nc12	4.82 µM (inactive)	4.03 µM (inactive)	4.95 µM (inactive)	1.02 µM (active)	3.57 µM (inactive)	19.6 µM (inactive)	2.47 µM (inactive)	1.86 µM (inactive)	3 µM (inactive)	1.91 µM	1.07 µM (active)	3.53 µM (inactive)	2.11 µM (inactive)	2.08 µM (inactive)	1.24 µM (inactive)					
CN(C)CC(/C(Cc1ccccc1)=N\NC(=O)c1ccncc1)c1ccccc1 (configuration not stated)	38 µM (inactive)		36.1 µM (inactive)	27.5 µM (inactive)	27.4 µM (inactive)	19.2 µM (inactive)	18.9 µM (inactive)	33.8 µM (inactive)	45.9 µM (inactive)		30.8 µM (inactive)	25.5 µM (inactive)		32.8 µM (inactive)	30.2 µM (inactive)					
COc1cc([C@@H]2c3cc4c(cc3[C@@H](OC(=O)c3ccccc3)C3COC(=O)[C@@H]32)OCO4)cc(OC)c1O (some centres not stated)	< 0.01 µM (active)	< 0.01 µM (active)	< 0.01 µM (active)	< 0.01 µM (active)	< 0.01 µM (active)	< 0.01 µM (active)	0.0104 µM (active)	0.0208 µM (active)	< 0.01 µM (active)		0.148 µM (active)		0.0143 µM (active)	< 0.01 µM (active)	< 0.01 µM (active)	0.0129 µM (active)				
O=C(N[C@@H]1C=CCC[C@@H]1c1ccccc1)OCc1ccccc1	30.4 µM (inactive)	17.5 µM (inactive)	18.8 µM (inactive)	24 µM (inactive)	14.8 µM (inactive)	16.5 µM (inactive)	16.3 µM (inactive)	18.5 µM (inactive)	21.9 µM (inactive)	17.9 µM	18.5 µM (inactive)	17.9 µM (inactive)	17.5 µM (inactive)	20.1 µM (inactive)	15.2 µM (inactive)	17.9 µM (inactive)				
Nc1nc(Cl)cc(NCCCCCCCCCCNc2cc(Cl)nc(N)n2)n1	87.3 µM (inactive)	10.9 µM (inactive)	1.27 µM (inactive)	< 0.01 µM (active)	0.415 µM (active)	28.6 µM (inactive)	4.93 µM (inactive)	22 µM (inactive)		3.55 µM	24.9 µM (inactive)	6.44 µM (inactive)	4.21 µM (inactive)	12.2 µM (inactive)	1.56 µM (inactive)	5.96 µM (inactive)				
C[C@H](CCC1SC1(C)C)C1CCC2(C)C3=C(CC[C@]12C)[C@@]1(C)CC[C@H](O)C(C)(C)C1CC3 (some centres not stated)	> 100 µM (inactive)	> 100 µM (inactive)	> 100 µM (inactive)	61 µM (inactive)	> 100 µM (inactive)	> 100 µM (inactive)	> 100 µM (inactive)	> 100 µM (inactive)	> 100 µM (inactive)	> 100 µM	> 100 µM (inactive)	> 100 µM (inactive)	> 10 µM (inactive)	> 100 µM (inactive)	> 100 µM (inactive)	> 100 µM (inactive)				

Source: ChEMBL document CHEMBL1201862, “PubChem BioAssay data set” (2004)
